The target in the assay is T1, human 11β-HSD1 (Homo sapiens, UniProt P28845).
T1 construct: host or cells: microsome fraction
In words: Enzymatic 11beta-HSD1 test (SPA-based detection). It is filed as biochemical. Particulars: human 11β-HSD1 microsome fraction, [1,2-3H]-cortisone, NADPH, 37° C. 1 hour. The essentials:
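Human 11β-HSD1 microsomes (0.2 µg protein) converted [1,2-3H]-cortisone ([…]) for 1 h at 37 °C. The reaction buffer was HEPES/KCl/NaCl/MgCl2 with 0.25 mM NADPH, with compounds added in DMSO. The reaction was stopped with SPA beads, anti-cortisol monoclonal antibody and 0.01 mM SSR110887; after 1 h at room temperature, [3H]-cortisol was scintillation-counted.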

Usually IC50 stands for the concentration at which inhibition is half-maximal. Higher therefore signals weaker potency in that assay.

T1 sequence (P28845 whole entry): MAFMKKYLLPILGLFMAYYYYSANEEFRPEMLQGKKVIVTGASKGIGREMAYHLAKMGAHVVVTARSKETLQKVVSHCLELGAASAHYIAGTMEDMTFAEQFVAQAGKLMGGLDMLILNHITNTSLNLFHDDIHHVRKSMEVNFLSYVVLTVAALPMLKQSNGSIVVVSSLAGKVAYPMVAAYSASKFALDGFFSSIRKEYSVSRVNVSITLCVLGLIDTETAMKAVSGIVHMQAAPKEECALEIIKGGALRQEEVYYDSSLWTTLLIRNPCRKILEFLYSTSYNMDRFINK

The compound `CC1(C)OC(N[C@@H](CCO)c2ccccc2F)=NS(=O)(=O)C1(C)c1ccc(-c2ccccc2)cc1` (stereo partly drawn) [Example 53, (S)-3-(5-Biphenyl-4-yl-5,6,6-trimethyl-4,4-dioxo-5,6-dihydro-4H-4lambda6-[1,4,3]oxathiazin-2-ylamino)-3-(2-fluorophenyl)-propan-1-ol] displayed an IC50 of 8 nM.
With `C[C@H](NC1=NS(=O)(=O)C(c2ccc(-c3ccnc(C#N)c3)nc2)C(C)(C)O1)c1ccccc1F` (stereo partly drawn) [Example 190, 5-{2-[(S)-1-(2-fluorophenyl)-ethylamino]-6,6-dimethyl-4,4-dioxo-5,6-dihydro-4H-4lambda6-[1,4,3]oxathiazin-5-yl}-[2,4′]bipyridinyl-2′-carbonitril] the figure was 331 nM; with `CC1(C)OC(N[C@@H](CCO)c2ccccc2F)=NS(=O)(=O)C1c1ccc(CN2CCOCC2)cc1` (stereo partly drawn) [Example 129, (S)-3-[6,6-Dimethyl-5-(4-morpholin-4-ylmethyl-phenyl)-4,4-dioxo-5,6-dihydro-4H-4lambda6-[1,4,3]oxathiazin-2-ylamino]-3-(2-fluorophenyl)-propan-1-ol], 18 nM.
The value for `CN1CCN(c2ncc(-c3ccc(C4C(C)(C)OC(N[C@@H](CCO)c5ccccc5F)=NS4(=O)=O)cc3)cn2)CC1` (stereo partly drawn) [Example 125, (S)-3-(6,6-Dimethyl-5-{4-[2-(4-methyl-piperazin-1-yl)-pyrimidin-5-yl]-phenyl}-4,4-dioxo-5,6-dihydro-4H-4lambda6-[1,4,3]oxathiazin-2-ylamino)-3-(2-fluorophenyl)-propan-1-ol] was 4 nM; that for `Cc1n[nH]cc1-c1ccc(C2C(C)(C)OC(N[C@@H](CCO)c3ccccc3F)=NS2(=O)=O)cc1` (stereo partly drawn) [Example 115, (S)-3-{6,6-Dimethyl-5-[4-(3-methyl-1H-pyrazol-yl)-phenyl]-4,4-dioxo-5,6-dihydro-4H-4lambda6-[1,4,3]oxathiazin-2-ylamino}-3-(2-fluorophenyl)-propan-1-ol] was 5 nM.
The value for `C[C@H](NC1=NS(=O)(=O)C(C)(c2cccc(N3CCCC3)c2)C(C)(C)O1)c1ccccc1F` (stereo partly drawn) [Compound 36, [(S)-1-(2-Fluorophenyl)ethyl]-[5,6,6-trimethyl-4,4-dioxo-5-(3-pyrrolidin-1-ylphenyl)-5,6-dihydro-4H-4lambda6-[1,4,3]oxathiazin-2-yl]amine] was 15 nM; that for `CC1(C)OC(N[C@@H](CCO)c2ccccc2F)=NS(=O)(=O)C1c1ccc(-c2ccccc2)cc1` (single isomer, unassigned) [Example 70] was 19 nM; that for `CN1CCN(CCOc2ccc(C3C(C)(C)OC(N[C@@H](CCO)c4ccccc4F)=NS3(=O)=O)cc2)CC1` (stereo partly drawn) [Example 137, (S)-3-(6,6-Dimethyl-5-{4-[2-(4-methyl-piperazin-1-yl)-ethoxy]-phenyl}-4,4-dioxo-5,6-dihydro-4H-4lambda6-[1,4,3]oxathiazin-2-ylamino)-3-(2-fluoro-phenyl)-propan-1-ol] was 70 nM.
For `CC1(C)OC(N[C@@H](CCO)c2ccccc2F)=NS(=O)(=O)C1c1ccc(CCCN2CCOCC2)cc1` (stereo partly drawn) [Example 110], the half-maximal inhibitory concentration (IC50) was found to be 27 nM.
With `CC1(C)OC(N[C@@H](CCO)c2ccccc2F)=NS(=O)(=O)C1c1ccc(NC2CCN(C3CC3)CC2)cc1` (stereo partly drawn) [Example 142, (S)-3-{5-[4-(1-Cyclopropyl-piperidin-4-ylamino)-phenyl]-6,6-dimethyl-4,4-dioxo-5,6-dihydro-4H-4lambda6-[1,4,3]oxathiazin-2-ylamino}-3-(2-fluoro-phenyl)-propan-1-ol] the figure was 64 nM; with `C[C@H](NC1=NS(=O)(=O)C(c2ccccc2)C(C)(C)O1)c1ccccc1F` (stereo partly drawn) [Example 31, (6,6-Dimethyl-4,4-dioxo-5-phenyl-5,6-dihydro-4H-4lambda6-[1,4,3]oxathiazin-2-yl)-[(S)-1-(2-fluoro-phenyl)-ethyl]-amine], 10 nM.
With `CC1(C)OC(N[C@@H](CCO)c2ccccc2)=NS(=O)(=O)C1(C)c1cccc(-c2ccccc2)c1` (stereo partly drawn) [Example 72, (S)-3-(5-Biphenyl-3-yl-5,6,6-trimethyl-4,4-dioxo-5,6-dihydro-4H-4lambda6-[1,4,3]oxathiazin-2-ylamino)-3-phenyl-propan-1-ol] the figure was 46 nM; with `CC1(C)OC(N[C@@H](CCO)c2ccccc2F)=NS(=O)(=O)C1c1ccc(C2CCN(C3CC3)CC2)cc1` (stereo partly drawn) [Example 152, (S)-3-{5-[4-(1-Cyclopropyl-piperidin-4-yl)-phenyl]-6,6-dimethyl-4,4-dioxo-5,6-dihydro-4H-4lamda6-[1,4,3]oxathiazin-2-ylamino}-3-(2-fluorophenyl)-propan-1-ol], 26 nM; with `CC1(C)OC(N[C@@H](CCO)c2ccccc2)=NS(=O)(=O)C1c1ccccc1` (single isomer, unassigned) [Example 29], 23 nM.
With `CC1(C)OC(N[C@@H](CCO)c2ccccc2F)=NS(=O)(=O)[C@@H]1c1ccc(-c2cccc(C(N)=O)c2)cc1` [Example 150, 4′-{(R)-2-[(S)-1-(2-fluorophenyl)-3-hydroxy-propylamino]-6,6-dimethyl-4,4-dioxo-5,6-dihydro-4H-4lambda6-[1,4,3]oxathiazin-5-yl}-biphenyl-3-carboxamide] the figure was 3 nM; with `C[C@H](NC1=NS(=O)(=O)C(c2ccc(C(C)(C)C)cc2)C(C)(C)O1)c1ccccc1F` (stereo partly drawn) [Compound 59, [5-(4-tert-Butylphenyl)-6,6-dimethyl-4,4-dioxo-5,6-dihydro-4H-4lambda6-[1,4,3]oxathiazin-2-yl]-[(S)-1-(2-fluorophenyl)ethyl]amine], 55 nM.
The compound `CC1(C)OC(N[C@@H](CCO)c2ccccc2)=NS(=O)(=O)C1(C)c1cccc(N2CCN(S(C)(=O)=O)CC2)c1` (stereo partly drawn) [Compound 34, (S)-3-{5-[3-(4-Methanesulfonylpiperazin-1-yl)-phenyl]-5,6,6-trimethyl-4,4-dioxo-5,6-dihydro-4H-4lambda6-[1,4,3]oxathiazin-2-ylamino}-3-phenylpropan-1-ol] displayed an IC50 of 17 nM.
With `CC(C)(C)c1ccc(C2(C)C(C)(C)OC(N[C@@H](CCO)c3ccccc3F)=NS2(=O)=O)cc1` (stereo partly drawn) [Compound 61, (S)-3-[5-(4-tert-Butylphenyl)-5,6,6-trimethyl-4,4-dioxo-5,6-dihydro-4H-4lambda6-[1,4,3]oxathiazin-2-ylamino]-3-(2-fluorophenyl)propan-1-ol] the figure was 14 nM; with `C[C@H](NC1=NS(=O)(=O)C(c2ccc(C3CCN(CCO)CC3)cc2)C(C)(C)O1)c1ccccc1F` (stereo partly drawn) [Example 160, 2-[4-(4-{2-[(S)-1-(2-fluorophenyl)-ethylamino]-6,6-dimethyl-4,4-dioxo-5,6-dihydro-4H-4lambda6-[1,4,3]oxathiazin-5-yl}-phenyl)-piperidin-1-yl]-ethanol], 64 nM.
The value for `Cc1ccccc1-c1ccc(C2C(C)(C)OC(N[C@@H](CCO)c3ccccc3F)=NS2(=O)=O)cc1` (stereo partly drawn) [Example 64, (S)-3-[6,6-Dimethyl-5-(2′-methyl-biphenyl-4-yl)-4,4-dioxo-5,6-dihydro-4H-4lambda6-[1,4,3]oxathiazin-2-ylamino]-3-(2-fluorophenyl)-propan-1-ol] was 12 nM; that for `CC1(C)OC(N[C@@H](CCO)c2ccc(F)cc2F)=NS(=O)(=O)C1c1ccc(-c2ccccc2)cc1` (stereo partly drawn) [Example 97, (S)-3-(5-Biphenyl-4-yl-6,6-dimethyl-4,4-dioxo-5,6-dihydro-4H-4lambda6-[1,4,3]oxathiazin-2-ylamino)-3-(2,4-difluorophenyl)-propan-1-ol] was 16 nM.

The values are drawn from patent US8895547B2, “Substituted phenyl-oxathiazine derivatives, method for producing them, drugs containing said compounds and the use thereof” (Sanofi, priority 2011, dated 2014).
